Measured values reported in publication PMC11732138, “Gold complex compounds that inhibit drug-resistant Staphylococcus aureus by targeting thioredoxin reductase” (Frontiers in Antibiotics, 2023).
Where two headings read alike, the source gives them in different places.

Experiments:
S. aureus MW2 [1] = assay: Broth microdilution MIC, S. aureus MW2; assay type: cell-based, Staphylococcus aureus; conditions: S. aureus MW2 (MRSA), broth microdilution, 18 h
Protocol: (§1) In vitro antibiotic susceptibilities were determined using the broth microdilution assay established by the Clinical and Laboratory Standards Institute ([Clinical and Laboratory Standards Institute, 2012]). Broth microdilution assays were carried out with 2 biological replicates, each in triplicate, Mueller–Hinton broth (MHB; BD Biosciences, Franklin Lakes, NJ, USA) with a total assay volume of 100 μL in 96-well plates (BD Biosciences, Franklin Lakes, NJ, USA). Two-fold serial dilutions of compounds were prepared at a range of 0.01– 64 μg/mL in 50 μL of MHB. The initial bacterial inoculum was adjusted to OD600 0.06, 50 μL was, added to the test compounds, and then incubated at 35°C for 18 h. Post incubation, OD600 was measured using a Vmax microplate reader (Molecular Devices, San Jose, CA), and the lowest concentration of test compound that suppressed bacterial growth was reported as the MIC. Broth culture from the MIC assay (10 μL) was plated on Mueller–Hinton agar (BD Biosciences, Franklin Lakes, NJ, USA), and colony-forming units (CFUs) were enumerated after overnight incubation at 37°C.

E. faecium ATCC E007 = assay: Broth microdilution MIC, E. faecium; assay type: cell-based, Enterococcus faecium; conditions: E. faecium ATCC E007
Protocol: as §1

H. pylori 49503 = assay: Broth microdilution MIC, H. pylori; assay type: cell-based, Helicobacter pylori; conditions: H. pylori 49503
Protocol: as §1

A. baumannii 17978 = assay: Broth microdilution MIC, A. baumannii; assay type: cell-based, Acinetobacter baumannii; conditions: A. baumannii 17978
Protocol: as §1

P. aeruginosa PA14 = assay: Broth microdilution MIC, P. aeruginosa; assay type: cell-based, Pseudomonas aeruginosa; conditions: P. aeruginosa PA14
Protocol: as §1

K. pneumoniae ATCC 77326 = assay: Broth microdilution MIC, K. pneumoniae; assay type: cell-based, Klebsiella pneumonia; conditions: K. pneumoniae ATCC 77326
Protocol: as §1

Enterobacter (EAE 2625) = assay: Broth microdilution MIC, Enterobacter; assay type: cell-based, Enterobacter spp.; conditions: Enterobacter (EAE 2625)
Protocol: as §1

S. aureus MW2 [2] = assay: Diamide assay (CFU reduction); assay type: cell-based, Staphylococcus aureus; conditions: compound 0.5 μg/mL + 5 mM diamide, 3 h
Protocol: An overnight culture of S. aureus MW2 was inoculated in tryptic soy broth (TSB) media and grown with agitation. The cells were centrifuged, washed with PBS, and diluted to an OD600 0.4 (10^8 CFU/mL) in PBS. The cells were then treated with auranofin (0.5 µg/mL), AU1 (0.5 µg/mL), AU5 (0.5 µg/mL), and diamide (5 mM and 10 mM) alone or in combinations for 3 h at 37°C. The cells were then serially diluted and plated on tryptic soy agar (TSA) media and incubated at 37°C for 24 h. Colonies that grew on plates were enumerated to determine the effect of the drug and diamide on S. aureus.

[3] = test system: intracellular free thiols of S. aureus MW2; assay: Thiol depletion assay; assay type: cell-based, Staphylococcus aureus; conditions: treated vs untreated cell lysate
Protocol: S. aureus MW2 was treated for 15 min with the indicated (0.125, 0.25, 0.5, or 0.75 µg/mL) concentrations of auranofin, AU1, AU5, or ampicillin. After treatment bacteria were washed twice in PBS and then resuspended in 100 mM potassium phosphate, monobasic, pH 7.4, containing 1 mM ethylenediaminetetraacetic acid to promote lysis. Cells were incubated in the lysis solution for 30 min at 60°C and then vortexed briefly. The solution was centrifuged at 13,000 g for 10 min to collect cell debris. Lysate was collected and 50 μL was transferred to a 96-well plate. Thiols were quantified using the Fluorometric Thiol assay kit following the manufacturer’s instructions (Millipore Sigma, St. Louis, MO, USA). The fluorescence intensity was measured after a 30 min incubation time at λex = 490/λem = 535 nm using a Vmax plate reader.

[4] = test system: S. aureus MW2 biofilm formation; assay: Biofilm formation inhibition; assay type: cell-based, Staphylococcus aureus; conditions: 24 h, Alamar Blue
Protocol: (§2) Diluted bacterial cells were added to 100 μL of test compounds (serially diluted 16 to 0 μg/mL) and incubated for 24 h to assess the biofilm formation inhibition. For the disruption of matured biofilm, diluted cells in 100 μL were added to the 96-well plate and incubated for 24 h with no agitation. […] Biofilm assays were completed in triplicate.

mature S. aureus biofilm = assay: Disruption of mature biofilm; assay type: cell-based, Staphylococcus aureus; conditions: preformed 24 h biofilm, Alamar Blue
Protocol: as §2

[5] = test system: human primary hepatocytes; assay: Human primary hepatocytes toxicity; assay type: cell-based; conditions: 24 h, WST1
Protocol: Human primary hepatocytes toxicity. Cryopreserved human primary hepatocytes were purchased from the Cell Resource Core at Massachusetts General Hospital (Boston, MA, USA). Collagen sandwiched configuration was used to culture the thawed cells in 24-well plates. The 24-well plates were coated with rat tail collagen type I (Cell Recourse Core, MGH) and incubated for an hour before 4 x 10^5 live cells were plated and incubated at 37°C with 5% CO2 for 1 h to allow cells to attach to the collagen gel. After incubation, the medium was removed along with dead cells, and the remaining cells received 0.5 mL of hepatocyte culture medium containing Dulbecco’s modified Eagle’s medium (DMEM) media supplemented with 10% FBS, 0.5 U/mL insulin, 14 ng/mL glucagon, 20 ng/mL EGF, 7.5 µg/mL hydrocortisone and 200 U/mL penicillin-streptomycin. The cell cultures were incubated in a humidified, 5% CO2 incubator at 37°C. After 24 h, a top layer of collagen gel was poured over the hepatocytes attached to collagen on the bottom of the plate, making a sandwich model. After 1 h, investigational compounds at the designated concentrations were added and incubated for 24 h. Post incubation, hepatocyte WST1 (Roche, Basel, Switzerland) was added and incubated for 4 h. Cell staining was measured by recording the absorbance at 420 nm, measured using a Vmax microplate reader (Molecular Devices, San Jose, CA, USA.), and data were plotted using GraphPad Prism. Cells were tested in triplicate.

[6] = test system: renal proximal tubule epithelial cells; assay: Renal proximal tubule epithelial cell toxicity; assay type: cell-based, human; conditions: renal proximal tubule epithelial cells
hERG channel [7] = biological target: T1, hERG channel (Homo sapiens, UniProt Q12809)
T1 sequence (Q12809 whole entry): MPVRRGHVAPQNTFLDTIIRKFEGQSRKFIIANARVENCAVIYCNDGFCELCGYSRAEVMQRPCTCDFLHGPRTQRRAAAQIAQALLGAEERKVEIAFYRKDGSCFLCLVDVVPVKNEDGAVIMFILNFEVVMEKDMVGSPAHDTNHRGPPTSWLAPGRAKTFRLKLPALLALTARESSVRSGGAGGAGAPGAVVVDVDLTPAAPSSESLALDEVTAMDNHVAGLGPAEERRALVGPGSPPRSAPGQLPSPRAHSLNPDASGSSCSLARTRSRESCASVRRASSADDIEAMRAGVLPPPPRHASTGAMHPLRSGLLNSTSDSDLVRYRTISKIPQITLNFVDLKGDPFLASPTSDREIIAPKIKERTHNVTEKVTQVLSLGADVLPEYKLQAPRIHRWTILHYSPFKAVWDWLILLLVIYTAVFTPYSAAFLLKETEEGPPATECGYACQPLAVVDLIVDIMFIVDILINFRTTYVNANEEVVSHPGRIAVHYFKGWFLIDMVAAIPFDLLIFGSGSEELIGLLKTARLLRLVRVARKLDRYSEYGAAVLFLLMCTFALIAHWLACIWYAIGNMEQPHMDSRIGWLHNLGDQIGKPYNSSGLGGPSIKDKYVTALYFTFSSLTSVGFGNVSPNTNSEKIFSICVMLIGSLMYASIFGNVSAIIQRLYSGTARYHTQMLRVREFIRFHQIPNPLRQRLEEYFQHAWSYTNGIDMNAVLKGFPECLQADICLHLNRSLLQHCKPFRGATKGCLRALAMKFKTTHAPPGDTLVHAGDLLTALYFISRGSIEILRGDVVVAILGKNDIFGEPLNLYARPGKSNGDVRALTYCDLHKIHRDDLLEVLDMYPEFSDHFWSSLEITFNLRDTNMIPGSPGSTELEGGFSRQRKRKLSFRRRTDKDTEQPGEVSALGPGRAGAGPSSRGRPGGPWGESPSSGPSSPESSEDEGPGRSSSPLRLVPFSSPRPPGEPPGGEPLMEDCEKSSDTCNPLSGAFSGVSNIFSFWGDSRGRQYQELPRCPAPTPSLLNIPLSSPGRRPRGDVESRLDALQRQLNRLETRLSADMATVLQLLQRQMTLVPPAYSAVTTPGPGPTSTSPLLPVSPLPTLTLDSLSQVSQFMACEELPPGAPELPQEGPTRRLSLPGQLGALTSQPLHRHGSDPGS
Description: (§4) QPatch HTX system (Sophion Biosciences A/S, Ballerup, Denmark) was used to examine hERG signaling (Cyprotex, Watertown, MA, USA). The system was primed with appropriate extracellular (NaCl, KCl, CaCl2, MgCl2, D-glucose, HEPES, pH 7.4) and intracellular (KCl, MgCl2, EGTA, MgATP, HEPES, pH 7.2) solutions before conducting the study in a 48 well plate (QPlate, Sophion Biosciences A/S, Ballerup, Denmark). All cell suspensions, buffers, and test compound solutions were kept at room temperature during the experiment. HEK293 cells stably transfected with hERG cDNA were washed and positioned into each well (recording chamber) of the QPlate. The QPatch system follows the general principles of conventional whole-cell patch-clamping: a high resistance seal is formed between the patch electrode, and an individual cell, the membrane across the electrode tip is then ruptured, and the whole-cell patch-clamp configuration is established. The standard voltage profile was as follows: step from -80 mV to –50 mV for 200 ms, +20 mV for 4.8 s, step to -50 mV for 5 s, then stepped to the holding potential of -80 mV. The step from -80 mV to the test command (+20 mV) results in an outward current (i.e., current flows out of the cell), and the step from the test command (+20 mV) to -50 mV results in the tail current (the tail current represents deactivation of the current overtime). Compound dilutions were prepared by diluting a DMSO solution (default 10 mM), followed by dilution into an extracellular buffer such that the final concentrations tested were 0.1, 1, and 10 μM (final DMSO concentration 0.1%). Perfusion solutions contained 0.05% Pluronic F-68 and were stored at room temperature for the duration of the experiment each day. The voltage protocol was run and recorded continuously during the experiment. Cells were treated with a vehicle for 3 min (i.e., 0.1% DMSO) followed by three increasing test substance concentrations (0.1, 1, and 10 μM). The test compounds were applied in triplicate at each concentration and tested in at least 2 cells (biological replicates). […]

[8] = design: method as in Kean et al., 1997; conditions: auranofin-treated patients ref Kean et al., 1997; cited from earlier work
S. aureus TrxR = S. aureus TrxR (Staphylococcus aureus, UniProt P66011); assay: TrxR (TrxB) enzymatic assay, DTNB to TNB conversion
Chain of S. aureus TrxR (P66011 whole entry): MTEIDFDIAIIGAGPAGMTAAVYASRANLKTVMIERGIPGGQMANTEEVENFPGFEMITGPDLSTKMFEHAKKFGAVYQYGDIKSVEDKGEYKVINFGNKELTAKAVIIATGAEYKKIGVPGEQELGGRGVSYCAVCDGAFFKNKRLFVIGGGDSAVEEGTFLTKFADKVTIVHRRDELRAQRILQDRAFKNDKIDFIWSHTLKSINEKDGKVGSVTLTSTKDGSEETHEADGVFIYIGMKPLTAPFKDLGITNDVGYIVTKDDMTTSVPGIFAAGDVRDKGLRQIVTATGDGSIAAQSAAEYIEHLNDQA
Protocol: TrxR specific inhibitory activity was evaluated using 40 μL of S. aureus TrxR enzyme (0.5 μg/μL) per 200 mL of the reaction mixture for 15 minutes, comparing auranofin to other sulfur-containing compounds (all tested at 10 μg/mL), including known anti-S. aureus compounds.
For the screening assay, diluted TrxR assay buffer (Cayman Chemical, Ann Arbor, MI) (100 μL) was mixed with the investigational compounds (20 μL) in a 96 well-plate format and combined with Sa-TrxB (40 μL; 0.5 μg/mL), DTNB (20 μL) and NADPH (20 μL). The reaction entailed combining NADPH and Sa-TrxB with DTNB, which was converted to TNB, producing a yellow color.

S. aureus MW2 [9] = assay: Time to kill assay; assay type: cell-based, Staphylococcus aureus; conditions: 4 × MIC, 4 h; bactericidal = 3-log10-CFU/mL reduction
Protocol: S. aureus MW2, a methicillin-resistant S. aureus (MRSA) isolate, was used to determine the bacteriostatic/bactericidal properties of test compounds, as previously described ([Rajamuthiah et al., 2015]). Assays were carried out as 2 biological replicates with n=3 for each in 24 well plates (BD Biosciences, Franklin Lakes, NJ, USA). Briefly, S. aureus MW2 cells were streaked on TSB agar from a frozen glycerol stock, and after overnight incubation, a single colony was inoculated on 2 mL of TSB and incubated at 37°C with agitation. The overnight culture of S. aureus MW2 was centrifuged at 4000 g for 5 min and then washed twice with PBS and collected through centrifuged at 4000 g for 5 min. The PBS was discarded and cells were suspended in TSB and aliquoted into a 24-well plate at a density of 10^8 cells/mL as a 1 mL volume. Test compounds were added such that the final concentration was 4 × MIC, and the cultures were incubated at 37°C with agitation. At designated time intervals, 5 μL aliquots from each test condition were serially diluted in TSB and plated onto TSA (BD Biosciences, Franklin Lakes, NJ, USA). CFUs were enumerated after overnight incubation at 35°C, and data were plotted using GraphPad Prism 9.0 (San Diego, CA, USA) to report the means and standard deviation of growth as measured by CFU/mL.

HKC cells = assay: Immortalized cell line toxicity (WST-1), HKC; assay type: cell-based, human; conditions: HKC kidney cell line, 24 h
Protocol: (§3) A hepatic cell line (HepG2), lung carcinoma cell line (A549), and kidney cell line (HKC) were used to test the cytotoxicity of investigational compounds. Cells were grown in DMEM (ThermoFisher Scientific, Waltham, MA, USA) supplemented with 10% fetal bovine serum (FBS) (ThermoFisher Scientific, Waltham, MA, USA) and 1% penicillin/streptomycin (ThermoFisher Scientific, Waltham, MA, USA) and maintained at 37°C in 5% CO2. 2.5x10^4 cells in 100 μL of DMEM with 10% FBS were added to wells of 96-well plates 24 h prior to the experiments. Compounds were serially diluted in […], and 100 μL antibiotic-free DMEM was added to the monolayer and incubated at 37°C in 5% CO2 for 24 h. At 2 h before the end of the incubation period, 10 μL of 2-(4-iodophenyl)-3-(4-nitrophenyl)-5-(2, 4-disulfophenyl)-2H-tetrazolium (WST-1) solution (Roche, Mannheim, Germany) was added to each well. WST-1 reduction was monitored at 450 nm using a Vmax microplate reader. Assays were performed in triplicate, and the percentage survival was calculated by comparing the compound-treated wells to the DMSO vehicle control wells.

HepG2 cells = assay: Immortalized cell line toxicity (WST-1), HepG2; assay type: cell-based, human; conditions: HepG2 liver cell line, 24 h
Protocol: as §3

A549 cells = assay: Immortalized cell line toxicity (WST-1), A549; assay type: cell-based, human; conditions: A549 lung carcinoma cell line, 24 h
Protocol: as §3

[10] = Immortalized cell line toxicity (WST-1), the three cell lines together; assay type: cell-based; conditions: human, hkc, hepg2, a549 cells; read-out: toxicity to cell lines as multiple of the MIC
Protocol: as §3

human erythrocytes = conditions: tested range 256 to 0.125 μg/mL
Protocol: The plate was incubated for 1h at 37°C. After incubation, the plate was centrifuged at 1000 g for 5 min. Then, 100 µL of supernatant was transferred to a fresh 96-well microtiter well plate and the OD was measured at 540 nm. The assay was conducted in triplicate and the mean and SD values were reported.

[11] = Compound solubility in PBS; assay type: physicochemical; conditions: aqueous buffer
Protocol: Compound solubility in PBS. Compound solubility was measured in PBS. Briefly, serial dilutions of test compounds were prepared in DMSO at 100x the final concentration. Test compound solutions were diluted 100-fold into PBS in a 96-well plate and mixed. After 2 h, the presence of precipitate was detected by measuring absorbance at 540 nm.

[12] = Compound solubility in DMSO; assay type: physicochemical; conditions: organic solvent or mixture, turbidity at 540 nm, read-out: concentration up to which the compound remained soluble in DMSO
Protocol: To test compound solubility, stock solutions were made in triplicate at 50 mg/mL in DMSO. Two-fold serial dilutions of the test compounds were prepared at 50 μL volume in a 96-well assay plate and were kept in the incubator for 1 h. After incubation, the absorbance was measured at 540 nm using a Vmax microplate reader (Molecular Devices, Sunnyvale, CA, USA.) to detect turbidity.

hERG channel [13] = biological target: T1, hERG channel; assay: hERG measurement (QPatch HTX patch clamp)
Description: as §4

CC(=O)OC[C@H]1O[C@@H]([S-])[C@H](OC(C)=O)[C@@H](OC(C)=O)[C@@H]1OC(C)=O.CCP(CC)CC.[Au+] [Auranofin]
MIC (S. aureus MW2 [1]): 0.25 µg/mL
MIC (E. faecium ATCC E007): 0.5 µg/mL
MIC (H. pylori 49503): 0.25 µg/mL
MIC (A. baumannii 17978): 32 µg/mL
MIC (P. aeruginosa PA14): >32 µg/mL
MIC (K. pneumoniae ATCC 77326): >32 µg/mL
MIC (Enterobacter (EAE 2625)): >32 µg/mL
log CFU reduction in combination with diamide (S. aureus MW2 [2]): 2.1 log CFU
impact on free thiols (in words) [3]: a reduction was observed
concentration that inhibited biofilm formation (P<0.01) [4]: 0.125 µg/mL
concentration that significantly reduced mature biofilm (mature S. aureus biofilm): 0.125 µg/mL
LD50 [5]: approximately 8 μg/mL
LD50 as multiple of the MIC [6]: 6 X MIC
IC50 (hERG channel [7]): 9.68 µM
patients with proteinuria [8]: 5%
TrxR enzymatic inhibitory activity (in words) (S. aureus TrxR; DTNB to TNB conversion): Measurable activity reduction
OD420 in TrxR enzymatic assay (S. aureus TrxR; subscreen, after a 30 min incubation period, DMSO 0.483 ± 0.121): 0.295 ± 0.012

CC(C)(C)c1ccc([S-])cc1.CCP(CC)CC.[Au+] [AU1]
bactericidal versus bacteriostatic nature (time-to-kill kinetics) (S. aureus MW2 [9]): bacteriostatic
LD50 (HKC cells): < 2 µg/mL
LD50 (HepG2 cells): approximately 3 μg/mL
LD50 (A549 cells): approximately 4 μg/mL
selectivity ratio at 24 h [10]: 16 to 32
hemolysis (in words) (human erythrocytes): did not cause hemolysis within the tested range
LD50 [5]: approximately 3 μg/mL
LD50 [6]: 1.5 µg/mL
LD50 as multiple of the MIC [6]: 12 X MIC
solubility at 2 h ([11]; PBS, 2 Hour, highest concentration with no detectable precipitate, read-out: Solubility Limit): 3.13 µM
solubility at 2 h ([11]; pbs, read-out: Solubility in PBS converted to mass concentration): 1.49 µg/mL
solubility at 1 h [12]: ≥ 50 µg/mL
IC50 (hERG channel [13]): > 10 µM
IC50 (S. aureus TrxR): 0.5 µM
